For 2 compounds, IC50 results are on record in patent US6569858B2, “12,13-(pyranosyl)-indolo[2,3-a]pyrrolo[3,4-c]carbazole and 12,13-(pyranosyl)-furo[3,4-c]indolo[2,3-a]carbazoles” (Les Laboratoires Servier, priority 1999, dated 2003).

In the data set the test system is murine leukaemia L1210. In words: Murine leukaemia L1210 in vitro cytotoxicity (Microculture Tetrazolium Assay). Conditions: L1210, exposure 48 hours (four doubling periods); read-out: IC50, the cytotoxic concentration that inhibits proliferation of treated cells by 50%. Type of data set: cell-based. The protocol: The murine leukaemia L1210 was used in vitro. The cells are cultured in complete RPMI 1640 culture medium comprising 10% foetal calf serum, 2 mM glutamine, 50 units/ml of penicillin, 50 μg/ml of streptomycin and 10 mM Hepes, pH 7.4. The cells are distributed on microplates and are exposed to the cytotoxic compounds for four doubling periods, that is to say 48 hours. The number of viable cells is then quantified by a colorimetric assay, the Microculture Tetrazolium Assay (J. Carmichael et al., Cancer Res., 47, 936-942, (1987)). The results are expressed as IC50, the cytotoxic concentration that inhibits proliferation of treated cells by 50%.

`COC1C(CO)OC2C(C1O)n1c3ccc([N+](=O)[O-])cc3c3c4c(c5c6cc([N+](=O)[O-])ccc6n2c5c31)C(=O)NC4=O` [Example 13, 3,9-Dinitro-12,13-[1,2-(4—O-methyl-β-D-mannopyranosyl)]-6,7,12,13-tetrahydro-(5,H)-indolo[2,3-a]pyrrolo[3,4-c]carbazole-5,7-dione]: the IC50 stood at 0.13 µM.
As to `COC1C(CO)OC2C(C1O)n1c3ccc(Br)cc3c3c4c(c5c6cc(Br)ccc6n2c5c31)C(=O)NC4=O` [Example 19, 3,9-Dibromo-12,13-[1,2-(4—O-methyl-β-D-mannopyranosyl)]-6,7,12,13-tetrahydro-(5H)-indolo[2,3-a]pyrrolo[3,4-c]carbazole-5,7-dione], the IC50 came to 0.14 µM.
